In ChEMBL document CHEMBL3804812, “Design, Syntheses, and Anti-TB Activity of 1,3-Benzothiazinone Azide and Click Chemistry Products Inspired by BTZ043” (ACS Med Chem Lett, 2016) one finds Activity data, which are given here for one compound.

Structures are written as SMILES. Activity calls are given as the source filed them. No cut-off for these calls is given here.

For the assay, the system named is Mycobacterium tuberculosis. Kind of assay: Antibacterial activity against Mycobacterium tuberculosis NTB1 harboring cys287ser mutation in DprE1 assessed as reduction in colony formation. The assay is classed as functional, organism-based.

For the compound `C[C@H]1COC2(CCN(c3nc(=O)c4cc(C(F)(F)F)cc(N=[N+]=[N-])c4s3)CC2)O1`, the outcome was Active.
